The supplement of paper PMC10331698
± gives the standard deviation of the averaged measurements.

Columns and labels:
Test in all cases: level (log10 ratio to DMSO vehicle control); higher = higher biomarker level / cell amount than vehicle control
Conditions in all cases: in DMSO
[1] = compound: O=C(O)C(F)(F)C(F)(F)C(F)(F)C(F)(F)C(F)(F)C(F)(F)C(F)(F)C(F)(F)C(F)(F)F [Perfluorodecanoic acid]
Method: (§1)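 BioMAP Diversity Plus panel of 12 human primary cell co-culture systems (3C, 4H, LPS, SAg, BT, BF4T, BE3C, CASM3C, HDF3CGF, KF3CT, MyoF, Mphg). Compounds were added 1 h before stimulation and left for 24 h (MyoF 48 h; BT 72 h for soluble read-outs or 6 d for IgG). Biomarkers were read by ELISA, cytotoxicity by SRB, PBMC viability and proliferation by Alamar Blue. Each well value was divided by the mean of 8 DMSO control wells on the same plate and log10 transformed; duplicate blinded samples were tested at 4 concentrations.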

[2] = compound: NC(=O)C(F)(F)C(F)(F)C(F)(F)F [Heptafluorobutyramide]
Method: as §1

[3] = compound: FC(F)(F)C(F)(C(F)(F)F)C(F)(F)C(F)(F)CC1CO1 [3-(Perfluoro-3-methylbutyl)-1,2-propenoxide]
Method: as §1

[4] = compound: O=C(O)C(F)(F)C(F)(F)OC(F)(F)F [Perfluoro-3-methoxypropanoic acid]
Method: as §1

[5] = compound: CCN(CCO)S(=O)(=O)C(F)(F)C(F)(F)C(F)(F)C(F)(F)C(F)(F)C(F)(F)C(F)(F)C(F)(F)F [N-Ethyl-N-(2-hydroxyethyl)perfluorooctanesulfonamide]
Method: as §1

[6] = compound: NC(=O)C(F)(F)C(F)(F)F [Pentafluoropropionamide]
Method: as §1

[7] = compound: O=C(O)C(F)(F)C(F)(F)C(F)(F)C(F)(F)C(F)(F)C(F)(F)F [Perfluoroheptanoic acid]
Method: as §1

Row | Test System | level (log10) ([1]; 6700 nM) | level (log10) ([1]; 20000 nM) | level (log10) ([2]; 6700 nM) | level (log10) ([2]; 20000 nM) | level (log10) ([2]; 60000 nM) | level (log10) ([3]; 6700 nM) | level (log10) ([3]; 20000 nM) | level (log10) ([4]; 6700 nM) | level (log10) ([4]; 20000 nM) | level (log10) ([4]; 60000 nM) | level (log10) ([5]; 6700 nM) | level (log10) ([5]; 20000 nM) | level (log10) ([6]; 6700 nM) | level (log10) ([6]; 20000 nM) | level (log10) ([6]; 60000 nM) | level (log10) ([7]; 6700 nM) | level (log10) ([7]; 20000 nM) | level (log10) ([7]; 60000 nM)
1 | 3C:CCL2/MCP-1 | 0.0065 ± 0.013 | -0.004 ± 0.0028 | -0.011 ± 0.0057 | -0.0125 ± 0.0064 | 0.0065 ± 0.03 | -0.0115 ± 0.0064 | -0.0125 ± 0.025 | -0.0125 ± 0.0064 | -0.0095 ± 0.00071 | 0.0165 ± 0.0064 | -0.032 ± 0.016 | -0.145 ± 0.032 | 0.006 ± 0.018 | -0.007 ± 0.0099 | 0.0275 ± 0.00071 | 0.0015 ± 0.015 | -0.009 ± 0.013 | 0.032 ± 0.045
2 | 3C:CD54/ICAM-1 | 0.0105 ± 0.0021 | 0.015 ± 0.0071 | -0.023 ± 0.02 | -0.008 ± 0.0014 | -0.019 ± 0.016 | -0.0055 ± 0.00071 | -0.0025 ± 0.0064 | -0.001 ± 0.021 | -0.034 ± 0.0028 | -0.0055 ± 0.029 | 0.03 ± 0.013 | 0.075 ± 0.065 | 0.0035 ± 0.0035 | -0.0105 ± 0.016 | 0.008 ± 0.014 | 0.0025 ± 0.0035 | -0.0095 ± 0.0092 | 0.008 ± 0.023
3 | 3C:CD62E/E-Selectin | -0.004 ± 0.0085 | 0.0025 ± 0.019 | -0.0085 ± 0.03 | -0.017 ± 0.038 | -0.0385 ± 0.0064 | -0.0215 ± 0.0078 | -0.0115 ± 0.013 | 0.0015 ± 0.016 | -0.0155 ± 0.016 | 0.0005 ± 0.0078 | 0.0685 ± 0.012 | 0.068 ± 0.0057 | -0.0075 ± 0.0078 | -0.005 ± 0.011 | 0.005 ± 0.018 | 0.007 ± 0.0042 | 0.0125 ± 0.0078 | 0.0185 ± 0.00071
4 | 3C:CD106/VCAM-1 | -0.0005 ± 0.012 | -0.001 ± 0.021 | -0.0085 ± 0.0021 | -0.01 ± 0.014 | -0.025 | -0.0275 ± 0.019 | -0.0005 ± 0.013 | -0.0015 ± 0.0064 | -0.009 ± 0.024 | 0.0015 ± 0.018 | 0.0005 ± 0.005 | 0.005 ± 0.0085 | -0.0215 ± 0.013 | -0.009 ± 0.027 | -0.0105 ± 0.005 | 0.0165 ± 0.018 | -0.02 ± 0.0042 | -0.003 ± 0.014
5 | 3C:CD141/Thrombomodulin | -0.019 ± 0.025 | -0.0445 ± 0.012 | -0.004 ± 0.083 | -0.022 ± 0.099 | -0.047 ± 0.11 | -0.001 ± 0.017 | -0.0245 ± 0.018 | 0.0005 ± 0.087 | -0.0245 ± 0.036 | -0.0215 ± 0.023 | 0.046 ± 0.03 | 0.261 ± 0.14 | -0.0355 ± 0.032 | -0.0165 ± 0.005 | -0.027 ± 0.018 | 0.0185 ± 0.0035 | 0.0035 ± 0.00071 | 0.0205 ± 0.0021
6 | 3C:CD142/Tissue Factor | -0.013 ± 0.013 | -0.029 ± 0.0042 | -0.002 ± 0.064 | -0.007 ± 0.082 | -0.0235 ± 0.1 | -0.0095 ± 0.044 | -0.0125 ± 0.047 | -0.0125 ± 0.066 | -0.049 ± 0.034 | -0.0095 ± 0.057 | 0.0825 ± 0.036 | 0.235 ± 0.059 | -0.0305 ± 0.032 | -0.0575 ± 0.019 | -0.0205 ± 0.015 | -0.0065 ± 0.037 | -0.004 ± 0.027 | 0.0285 ± 0.039
7 | BE3C:Keratin 8/18 | 0.0035 ± 0.029 | -0.337 ± 0.0035 | -0.007 ± 0.0071 | -0.028 ± 0.0071 | -0.0265 ± 0.0078 | 0.0005 ± 0.03 | 0.001 ± 0.03 | -0.0155 ± 0.0092 | -0.006 ± 0.017 | -0.003 ± 0.024 | 0 ± 0.014 | -0.007 ± 0.014 | -0.0185 ± 0.0021 | -0.0185 ± 0.005 | -0.0185 ± 0.018 | -0.0135 ± 0.005 | -0.0135 ± 0.0078 | -0.0025 ± 0.012
8 | BE3C:MMP-1 | 0.211 ± 0.041 | -0.4875 ± 0.0035 | 0.007 ± 0.0057 | 0.0045 ± 0.018 | 0.0195 ± 0.073 | 0.0085 ± 0.076 | 0.0445 ± 0.1 | -0.0025 ± 0.018 | 0.002 ± 0.013 | 0.0155 ± 0.00071 | 0.255 ± 0.03 | 0.328 ± 0.0071 | 0.0275 ± 0.015 | 0.0185 ± 0.028 | 0.0665 ± 0.037 | 0.0345 ± 0.015 | 0.0405 ± 0.043 | 0.0865 ± 0.067
9 | BE3C:MMP-9 | 0.008 ± 0.014 | -0.458 ± 0.0028 | -0.0135 ± 0.021 | 0.005 ± 0.0071 | 0.0005 ± 0.012 | -0.005 ± 0.0071 | -0.018 ± 0.011 | 0.009 ± 0.021 | -0.002 ± 0.028 | 0.0285 ± 0.0078 | 0.018 ± 0.0071 | -0.0535 ± 0.04 | -0.002 ± 0.011 | -0.02 ± 0.031 | 0.004 ± 0.017 | 0.0015 ± 0.018 | 0.042 ± 0.0014 | 0.0785 ± 0.057
10 | BE3C:PAI-I | -0.0475 ± 0.013 | -0.4 ± 0.047 | -0.0065 ± 0.00071 | -0.0025 ± 0.00071 | -0.0115 ± 0.015 | -0.0175 ± 0.0035 | -0.0075 ± 0.013 | -0.012 ± 0.0057 | -0.009 ± 0.018 | 0.012 ± 0.0014 | -0.066 ± 0.0071 | -0.092 ± 0.017 | 0.002 ± 0.0057 | -0.009 ± 0.03 | -0.016 ± 0.0028 | 0.007 ± 0.0028 | 0.027 ± 0.0057 | 0.042 ± 0.021
11 | BE3C:SRB | -0.0245 ± 0.005 | -0.664 ± 0.021 | -0.0025 ± 0.0035 | 0.0005 ± 0.00071 | -0.002 ± 0.0042 | -0.0005 ± 0.00071 | 0.0015 ± 0.0021 | -0.001 | -0.004 ± 0.0014 | 0.004 ± 0.018 | -0.0175 ± 0.011 | -0.04 ± 0.0071 | -0.0015 ± 0.0021 | -0.001 | -0.0015 ± 0.005 | -0.006 ± 0.0071 | -0.0065 ± 0.0035 | 0.0035 ± 0.011
12 | BE3C:tPA | 0.0215 ± 0.026 | -0.546 ± 0.0085 | -0.027 ± 0.017 | -0.0055 ± 0.0021 | -0.0115 ± 0.028 | -0.0215 ± 0.04 | -0.037 ± 0.033 | -0.007 ± 0.04 | -0.0075 ± 0.019 | 0.004 ± 0.0071 | 0.142 ± 0.0099 | -0.036 ± 0.058 | -0.0055 ± 0.012 | -0.001 ± 0.018 | 0.003 ± 0.02 | -0.0205 ± 0.026 | -0.0255 ± 0.0078 | 0.017 ± 0.031
13 | BE3C:uPA | -0.0025 ± 0.011 | -0.38 ± 0.0099 | -0.011 ± 0.02 | -0.017 ± 0.024 | -0.0145 ± 0.019 | 0.0005 ± 0.018 | 0.004 ± 0.021 | -0.004 ± 0.0014 | -0.0025 ± 0.0021 | 0.0005 ± 0.0092 | -0.0025 ± 0.022 | -0.018 ± 0.031 | -0.0305 ± 0.028 | -0.0265 ± 0.015 | -0.011 ± 0.014 | -0.002 ± 0.0042 | 0.0055 ± 0.0035 | 0.0255 ± 0.015
14 | CASM3C:CCL2/MCP-1 | 0.006 ± 0.02 | 0 ± 0.0042 | -0.004 ± 0.0057 | -0.0145 ± 0.0021 | 0.015 ± 0.037 | -0.003 ± 0.0071 | 0.004 ± 0.031 | -0.0175 ± 0.032 | -0.0215 ± 0.03 | 0.017 ± 0.0099 | 0.003 ± 0.017 | -0.017 ± 0.0057 | -0.003 ± 0.021 | -0.01 ± 0.0014 | 0.0075 ± 0.013 | -0.0115 ± 0.015 | -0.013 ± 0.011 | 0.032 ± 0.044
15 | CASM3C:CD87/uPAR | -0.0055 ± 0.005 | 0.016 ± 0.011 | -0.0065 ± 0.026 | -0.0115 ± 0.032 | -0.033 ± 0.054 | -0.013 ± 0.016 | 0.002 ± 0.017 | -0.021 ± 0.048 | -0.0235 ± 0.035 | -0.031 ± 0.033 | -0.0595 ± 0.0092 | -0.09 ± 0.038 | -0.031 ± 0.05 | -0.012 ± 0.0071 | -0.019 ± 0.03 | -0.0005 ± 0.0078 | -0.019 ± 0.031 | -0.0055 ± 0.036
16 | CASM3C:CD106/VCAM-1 | 0.0015 ± 0.0092 | -0.036 ± 0.0085 | -0.0215 ± 0.053 | -0.0085 ± 0.033 | -0.0265 ± 0.059 | -0.022 ± 0.014 | -0.0145 ± 0.019 | -0.0155 ± 0.013 | -0.03 ± 0.0071 | 0.012 ± 0.02 | -0.085 ± 0.0057 | -0.219 ± 0.021 | -0.016 ± 0.016 | -0.014 ± 0.02 | -0.022 ± 0.011 | -0.0085 ± 0.0035 | -0.0135 ± 0.021 | 0.012 ± 0.054
